This note sets out measurements from patent publication US11065231B2, “Compounds and methods for the targeted degradation of interleukin-1 receptor- associated kinase 4 polypeptides” (Arvinas Operations, Inc., priority 2017, dated 2021).

A word on the DC50: it is the midpoint of the concentration-degradation curve. As a reminder, the IC50 is the concentration needed to halve the response being measured. As a reminder, the Dmax is the largest share of the target that was removed.

For assay [1], the target named is T1, IRAK4 (Homo sapiens (Human), UniProt Q9NWZ3). As to the kind of experiment: Western blot assay for assessing degradation of IRAK4 in MCF7 cells. It counts as cell-based. The conditions noted are these: Table 5, IRAK4 degradation, 24 hour incubation; for DC50: read-out: IRAK4 DC50; for Dmax: read-out: IRAK4 Dmax (%). How it is done: Western Blot Assay for Assessing Degradation of IRAK4.
T1 sequence (Q9NWZ3 whole entry): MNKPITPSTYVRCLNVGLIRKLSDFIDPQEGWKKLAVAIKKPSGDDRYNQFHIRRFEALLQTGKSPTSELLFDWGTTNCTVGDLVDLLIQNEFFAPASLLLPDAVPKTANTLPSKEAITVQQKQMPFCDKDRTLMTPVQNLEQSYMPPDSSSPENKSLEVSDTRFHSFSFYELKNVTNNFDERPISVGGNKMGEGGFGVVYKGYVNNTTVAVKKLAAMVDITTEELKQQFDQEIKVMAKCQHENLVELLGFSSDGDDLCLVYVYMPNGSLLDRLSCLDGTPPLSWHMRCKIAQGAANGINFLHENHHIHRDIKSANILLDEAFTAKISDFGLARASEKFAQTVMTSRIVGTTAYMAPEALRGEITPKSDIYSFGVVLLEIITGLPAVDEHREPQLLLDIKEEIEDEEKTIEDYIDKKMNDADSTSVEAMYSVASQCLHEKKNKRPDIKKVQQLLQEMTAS
MCF7 cells, purchased from ATCC (Manassas, Va.), were used at a passage range of 2-19. Cells were seeded at 50% confluency in 96-well plates at 180 μl/well in cell media (Dulbecco's Modified Eagle medium/nutrient F-12 Ham-10% Fetal Bovine Serum) and incubated overnight. The next morning, compounds were serially diluted and added (20 μl into 180 μl media) at a final DMSO concentration of 0.1%. Cells were rinsed with cell media and replaced with compounds in media, followed by incubation overnight. After a 24 hour incubation with compound, cell were harvested (90-100% confluent at harvest). Cells were then washed once with 100 μl of Dulbecco's hosphate-buffered saline and then lysed with 40 μl of lysis buffer (1×RIPA+HALT protease inhibitor+HALT phosphatase inhibitor) on ice for 10 minutes. Lysates were then cleaned by filtration in 1.2 µm filter plates followed by western blotting. For each sample, 30 μl of lysate were added to 10 μl of 4×LDS sample buffer, then denatured at 95° C. for 5 minutes in the thermal cycler and placed on ice. Fifteen μL of each sample were then loaded on 4-15% Tris/Glycine gels and run for 25 minutes at 250 (constant) volts in 1× Tris/Glycine buffer. Protein was transferred from gels to nitrocellulose using a BioRad Turbo dry-transfer unit with the Turbo/midi default program. All blots were rinsed with ddH2O and blocked for 1 hour at room temperature in 5% bovine serum albumin (BSA) in tris-buffered saline-Tween 20 (TBS-T) (0.1%) on rocker. Blots were exposed to primary antibody in 5% BSA in TBS-T (0.1%) overnight at 4° C. on rocker. Primary antibodies, diluted 1:1000 in […], were as follows: anti-IRAK4 (cat. #: ab119942, Abcam, Cambridge, Mass.), anti-IRAK1 (cat. #: CST 4504S, Cell Signaling Technology, Danvers, Mass.), and anti-Beta-actin (Cat. #: ab8227, Abcam, Cambridge, Mass.). Blots were then washed with TBS-T (0.1%) three times for 5 minutes on a rocker at room temperature. Secondary antibody (1:18,000 anti-rabbit-HRP and/or anti-mouse-HRP in 5% BSA in TBST (0.1%) was then added, and blots incubated at room temperature rocker for 1 hour. Blots were washed 3 times in TBS-T (0.1%) for 5 minutes at room temperature on the rocker. Signal was developed with Femto Max substrate for 5 minutes and blots read on a ChemiDoc. Percent degradation was assessed by comparing IRAK4 signal in compound vs. DMSO treated lysates.

The target of assay [2] is T1, IRAK4. The assay can be described thus: Biochemical Z'-Lyte FRET assay for IRAK4 kinase inhibition. The note with it: 2 nM enzyme, 1 mM ATP, 2 μM substrate. How it is done: Biochemical Assay for IRAK4 Kinase Inhibition.
A Z′-Lyte assay based on a fluorescence resonance energy transfer (FRET) readout was developed for measuring IRAK4-dependent phosphorylation of a FRET-peptide substrate as described by Thermo Fisher Scientific (Grand Island, N.Y.). At a starting concentration of 1.5 mM, the identified compounds were serially diluted with 100% dimethyl sulfoxide (DMSO) in 3-fold increments, into Greiner bio-one 96-well plates (cat. #: 650201, Greiner bio-one, Monroe, N.C.). Compounds were then transferred to intermediate Greiner bio-one 96-well plates and diluted 10-fold with Kinase assay buffer (25 mM HEPES, pH 7.5, 10 mM MgCl2, 10 mM MnCl2, 1 mM EGTA, and 0.01% Brij-35, 2 mM DTT). Three μL of the serially diluted compounds were then transferred in duplicate to low-volume 384-well black proxiplates (cat. #: 6008269; Perkin Elmer, Akron, Ohio), to give duplicate twelve-point concentration curves. Six μl of a 2.5× solution of IRAK4 enzyme (cat #: 40064, BPS Bioscience, San Diego, Calif.) in kinase buffer was added to each well, followed by a 10 minutes pre-incubation step. Reactions were initiated by adding 6 μl of a 2.5× substrate mix of ATP and Z′-Lyte Ser/Thr 7 peptide (cat. #: PV3180, Thermo Fisher Scientific, Grand Island, N.Y.) and proceeded at room temperature for 1 hour. The final concentration of key reagents in the 15 uL kinase reactions were 2 μM substrate, 2 nM enzyme, and 1 mM ATP, with dose responses starting at 30 μM compound. At the end of the kinase reactions, 5 μl of developing solution (as instructed in for cat. #: PV3180, Thermo Fisher Scientific, Grand Island, N.Y.) was added to each well and incubated at room temperature for 1 hour. All wells were read on an Envision 2105 Multilabel fluorescence plate reader (Perkin Elmer, Waltham, Mass.) at 400 nm excitation and 460 nm/530 nm emission. Plus and minus 100% inhibition controls were used to calculate percent inhibition and IC50 curves were generated using Graphpad Prism (La Jolla, Calif.).

On to `Cc1ccc(-n2nc(N3CCN(CCOCCOCCOCCOCC(=O)N[C@H](C(=O)N4C[C@H](O)C[C@H]4C(=O)NCc4ccc(-c5scnc5C)cc4)C(C)(C)C)CC3)cc2NC(=O)c2cnn3cccnc23)nc1` [compound 28, N-(3-(4-((S)-16-((2S,4R)-4-hydroxy-2-((4-(4-methylthiazol-5-yl)benzyl)carbamoyl)pyrrolidine-1-carbonyl)-17,17-dimethyl-14-oxo-3,6,9,12-tetraoxa-15-azapentadecyl)piperazin-1-yl)-1-(5-methylpyridin-2-yl)-1H-pyrazol-5-yl)pyrazolo[1,5-a]pyrimidine-3-carboxamide], for which the DC50 at IRAK4 [1] was not below 1000 nM. In addition, at IRAK4 [2], the IC50 was 300 to 1000 nM.

As to `CN(CCOCCOCCOc1ccc2c(c1)C(=O)N(C1CCC(=O)NC1=O)C2=O)c1cccc(-n2c(NC(=O)c3cccc(C(F)(F)F)c3)nc3cc(F)ccc32)c1` (stereo not drawn) [compound 49, N-(1-(3-((2-(2-(2-((2-(2,6-dioxopiperidin-3-yl)-1,3-dioxoisoindolin-5-yl)oxy)ethoxy)ethoxy)ethyl) (methyl)amino)phenyl)-5-fluoro-1H-benzo[d]imidazol-2-yl)-3-(trifluoromethyl)benzamide], on IRAK4 [1], the DC50 is not below 1000 nM. At IRAK4 [2], this compound returned an IC50 not below 1000 nM.

For `COc1cc2nn(C3CCN(CC4CCN(CCOc5ccc6c(c5)C(=O)N(C5CCC(=O)NC5=O)C6=O)CC4)CC3)cc2cc1NC(=O)c1cccc(C(F)(F)F)n1` (stereo not drawn) [compound 63, N-(2-(1-((1-(2-((2-(2,6-dioxopiperidin-3-yl)-1,3-dioxoisoindolin-5-yl)oxy)ethyl)piperadin-4-yl)methyl)piperidin-4-yl)-6-methoxy-2H-indazol-5-yl)-6-(trifluoromethyl)picolinamide], at IRAK4 [1], the 50% degradation concentration (DC50) is 30 to 100 nM and the maximal degradation (Dmax) is more than 70%. Moreover, the IC50 at IRAK4 [2] was less than 30 nM.

Consider `N#Cc1ccc2ncnc(N[C@H]3CC[C@H](N4CCN(CCOCCOCCOCCOCCOc5ccc6c(c5)C(=O)N(C5CCC(=O)NC5=O)C6=O)CC4)CC3)c2c1` (stereo partly drawn) [compound 33], for which the 50% degradation concentration (DC50) at IRAK4 [1] was not below 1000 nM. Moreover, the IC50 at IRAK4 [2] was not below 1000 nM.

For “N-(1-((1s,4s)-4-(13-((2-(2,6- dioxopiperidin-3-yl)-1,3- dioxoisoindolin-5-yl)oxy)- 2,5,8,11- tetraoxatetradecyl)cyclohexyl)- 5-(piperidin-1-ylmethyl)-1H- benzo[d]imidazol-2-yl)-3- (trifluoromethyl)benzamide [compound 42]”, on IRAK4 [1], the DC50 was not below 1000 nM. The compound further gave a 50% inhibitory concentration (IC50) at IRAK4 [2] of 300 to 1000 nM.

As for `O=C1CCC(N2C(=O)c3ccc(OCCOCCOCCOC[C@H]4CC[C@@H](n5c(NC(=O)c6cccc(C(F)(F)F)c6)nc6cc(F)ccc65)CC4)cc3C2=O)C(=O)N1` (stereo partly drawn) [compound 47, N-(1-((1s,4s)-4-((2-(2-(2-((2-(2,6-dioxopiperidin-3-yl)-1,3-dioxoisoindolin-5-yl)oxy)ethoxy)ethoxy)ethoxy)methyl)cyclohexyl)-5-fluoro-1H-benzo[d]imidazol-2-yl)-3-(trifluoromethyl)benzamide], the DC50 at IRAK4 [1] was not below 1000 nM. Also, on IRAK4 [2], the IC50 is not below 1000 nM.

For the compound `COc1cc2nn(C3CCN(CCOCCOCCOc4ccc5c(c4)C(=O)N(C4CCC(=O)NC4=O)C5=O)CC3)cc2cc1NC(=O)c1cccc(C(F)(F)F)n1` (stereo not drawn) [compound 59, N-(2-(1-(2-(2-(2-((2-(2,6-dioxopiperidin-3-yl)-1,3-dioxoisoindolin-5-yl)oxy)ethoxy)ethoxy)ethyl)piperidin-4-yl)-6-methoxy-2H-indazol-5-yl)-6-(trifluoromethyl)picolinamide], at IRAK4 [1], the DC50 fell in the range of 300 to 1000 nM and the Dmax is 50 to 70%. Besides, the IC50 against IRAK4 [2] is less than 30 nM.

For `COc1cc2nn(C3CCN(CCOCCOCCOc4ccc5c(c4)CN(C4CCC(=O)NC4=O)C5=O)CC3)cc2cc1NC(=O)c1cccc(C(F)(F)F)n1` (stereo not drawn) [compound 61, N-(2-(1-(2-(2-(2-((2-(2,6-dioxopiperidin-3-yl)-1-oxoisoindolin-5-yl)oxy)ethoxy)ethoxy)ethyl)piperadin-4-yl)-6-methoxy-2H-indazol-5-yl)-6-(trifluoromethyl)picolinamide], at IRAK4 [1], the DC50 was not below 1000 nM. The same compound showed an IC50 at IRAK4 [2] of less than 30 nM.

Consider `O=C1CCC(N2C(=O)c3ccc(OCCN4CCC(CN5CCN(Cc6ccc7c(c6)nc(NC(=O)c6cccc(C(F)(F)F)c6)n7[C@H]6CC[C@@H](CO)CC6)CC5)CC4)cc3C2=O)C(=O)N1` (stereo partly drawn) [compound 10], for which the DC50 at IRAK4 [1] is 30 to 100 nM. In addition, the concentration for half-maximal inhibition (IC50) on IRAK4 [2] is less than 30 nM.

As for `Cc1ccc(-n2nc(N3CCN(CCOCCOCCOCCOc4ccc5c(c4)C(=O)N(C4CCC(=O)NC4=O)C5=O)CC3)cc2NC(=O)c2cnn3cccnc23)nc1` (stereo not drawn) [compound 26, N-(3-(4-(2-(2-(2-(2-((2-(2,6-dioxopiperidin-3-yl)-1,3-dioxoisoindolin-5-yl)oxy)ethoxy)ethoxy)ethoxy)ethyl)piperazin-1-yl)-1-(5-methylpyridin-2-yl)-1H-pyrazol-5-yl)pyrazolo[1,5-a]pyrimidine-3-caboxamide], the DC50 on IRAK4 [1] is not below 1000 nM. This compound also showed an IC50 on IRAK4 [2] of 300 to 1000 nM.

In the case of `CN(CCOCCOCCOCCOc1ccc2c(c1)C(=O)N(C1CCC(=O)NC1=O)C2=O)c1cccc(-n2c(NC(=O)c3cccc(C(F)(F)F)c3)nc3cc(F)ccc32)c1` (stereo not drawn) [compound 52, N-(1-(3-((2-(2-(2-(2-((2-(2,6-dioxopiperidin-3-yl)-1,3-dioxoisoindolin-5-yl)oxy)ethoxy)ethoxy)ethoxy)ethyl)(methyl)amino)phenyl)-5-fluoro-1H-benzo[d]imidazol-2-yl)-3-(trifluoromethyl)benzamide], the DC50 at IRAK4 [1] was not below 1000 nM. Moreover, the 50% inhibitory concentration (IC50) against IRAK4 [2] was not below 1000 nM.

In the case of `O=C1CCC(N2Cc3cc(OCCOCCN4CCN(Cc5ccc6c(c5)nc(NC(=O)c5cccc(C(F)(F)F)c5)n6[C@H]5CC[C@@H](CO)CC5)CC4)ccc3C2=O)C(=O)N1` (stereo partly drawn) [compound 6, N-(5-((4-(2-(2-((2-(2,6-dioxopiperidin-3-yl)-1-oxoisoindolin-5-yl)oxy)ethoxy)ethyl)piperazin-1-yl)methyl)-1-((1s,4s)-4-(hydroxymethyl)cyclohexyl)-1H-benzo[d]imidazol-2-yl)-3-(trifluoromethyl)benzamide], the DC50 on IRAK4 [1] was not below 1000 nM. For the same compound, the IC50 against IRAK4 [2] was less than 30 nM.

Take `N#Cc1ccc2ncnc(N[C@H]3CC[C@H](N4CCN(S(=O)(=O)CCOCCOCCOCCOCCOc5ccc6c(c5)C(=O)N(C5CCC(=O)NC5=O)C6=O)CC4)CC3)c2c1` (stereo partly drawn) [compound 40]: the DC50 at IRAK4 [1] was not below 1000 nM. The IC50 against IRAK4 [2] was not below 1000 nM.

Turning to `N#Cc1ccc2ncnc(N[C@H]3CC[C@@H](N4CCN(S(=O)(=O)CCOCCOc5ccc6c(c5)C(=O)N(C5CCC(=O)NC5=O)C6=O)CC4)CC3)c2c1` (stereo partly drawn) [compound 35], the DC50 on IRAK4 [1] was not below 1000 nM. For the same compound, at IRAK4 [2], the IC50 is not below 1000 nM.
